How the values were obtained:
[1] = target: T1, Peroxisome proliferator-activated receptor alpha (Rattus norvegicus, UniProt P37230); assay: Agonist activity at rat PPARalpha in rat H4IIE cells assessed as gene induction; assay type: functional, cell-based
T1 sequence (P37230 whole entry): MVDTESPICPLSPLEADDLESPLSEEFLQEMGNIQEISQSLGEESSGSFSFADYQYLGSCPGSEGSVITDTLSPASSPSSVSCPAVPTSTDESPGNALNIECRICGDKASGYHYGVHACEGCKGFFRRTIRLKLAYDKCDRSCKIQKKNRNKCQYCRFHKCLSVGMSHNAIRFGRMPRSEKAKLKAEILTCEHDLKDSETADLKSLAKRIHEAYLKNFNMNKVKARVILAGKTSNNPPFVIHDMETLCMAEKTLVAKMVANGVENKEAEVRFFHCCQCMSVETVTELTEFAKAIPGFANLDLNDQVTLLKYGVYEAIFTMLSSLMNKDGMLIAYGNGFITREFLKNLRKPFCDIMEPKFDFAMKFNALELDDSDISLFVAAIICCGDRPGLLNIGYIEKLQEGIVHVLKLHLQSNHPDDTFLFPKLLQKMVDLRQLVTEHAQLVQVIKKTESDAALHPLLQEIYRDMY

[2] = Metabolic stability in human liver microsomes at 5 uM; assay type: ADME, Microsome
[3] = Cmax in Sprague-Dawley rat at 3 mg/kg, iv or 30 mg/kg, po; assay type: ADME, organism-based; conditions: in vivo
[4] = AUC in Sprague-Dawley rat at 3 mg/kg, iv or 30 mg/kg, po; assay type: ADME, organism-based; conditions: plasma
[5] = Half life at terminal phase in Sprague-Dawley rat at 30 mg/kg, po; assay type: ADME, organism-based; parameters: dose 30 mg/kg, route oral; conditions: in vivo, read-out: beta t1/2 (converted)
[6] = Total clearance in Sprague-Dawley rat at 3 mg/kg, iv or 30 mg/kg, po; assay type: ADME, organism-based; conditions: in vivo
[7] = Oral bioavailability in Sprague-Dawley rat at 30 mg/kg; assay type: ADME, organism-based; conditions: in vivo

Compound	EC50 [1]	also measured
CCCCCCCN(C(=O)Nc1ccccc1C)C1Cc2ccc(SC(C)(C)C(=O)O)cc2C1 (configuration not stated)	7540 nM	
CC(C)(Sc1ccc2c(c1)C[C@H](NC(=O)Nc1ccc(OC(F)(F)F)cc1)C2)C(=O)O	146 nM	
CCCCCCCN(C(=O)Nc1ccc(OC(F)(F)F)cc1)[C@@H]1Cc2ccc(SC(C)(C)C(=O)O)cc2C1	169 nM	
CCCCCCCN(C(=O)Nc1ccc(C(F)(F)F)cc1)C1Cc2ccc(SC(C)(C)C(=O)O)cc2C1 (configuration not stated)	1270 nM	
CCN(C(=O)Nc1ccc(N(C)C)cc1)C1Cc2ccc(SC(C)(C)C(=O)O)cc2C1 (configuration not stated)	117 nM	half-life at 5 µM [2]: 1.33 h; Cmax [3]: 72300 ng/mL; AUC [4]: 273000 ng·h/mL; half-life [5]: 4.46 h; clearance [6]: 0.11 mL/min/kg; bioavailability [7]: 58%
CCCCCCCN(C(=O)Nc1ccc(F)cc1F)C1Cc2ccc(SC(C)(C)C(=O)O)cc2C1 (configuration not stated)	> 10000 nM	
CCCCCCN(C(=O)Nc1ccc(SC(F)(F)F)cc1)C1Cc2ccc(SC(C)(C)C(=O)O)cc2C1 (configuration not stated)	249 nM	
CCCCCCCN(C(=O)Nc1ccccc1)C1Cc2ccc(SC(C)(C)C(=O)O)cc2C1 (configuration not stated)	> 10000 nM	
CCCCCN(C(=O)NC1Cc2ccc(SC(C)(C)C(=O)O)cc2C1)c1ccc(OC(F)(F)F)cc1 (configuration not stated)	> 5000 nM	
CCCCCCCN(C(=O)Nc1ccccc1SC(F)(F)F)C1Cc2ccc(SC(C)(C)C(=O)O)cc2C1 (configuration not stated)	1960 nM	
CN(C(=O)Nc1ccc(OC(F)(F)F)cc1)C1Cc2ccc(SC(C)(C)C(=O)O)cc2C1 (configuration not stated)	2850 nM	
CC(C)CCN(C(=O)Nc1ccc(OC(F)(F)F)cc1)C1Cc2ccc(SC(C)(C)C(=O)O)cc2C1 (configuration not stated)	386 nM	
CCN(C(=O)Nc1ccc(OC(F)(F)F)cc1)[C@H]1Cc2ccc(SC(C)(C)C(=O)O)cc2C1	165 nM	
CCN(C(=O)Nc1ccc(OC(F)(F)F)c(Cl)c1)C1Cc2ccc(SC(C)(C)C(=O)O)cc2C1 (configuration not stated)	> 3000 nM	
CC(C)CN(C(=O)Nc1ccc(OC(F)(F)F)cc1)C1Cc2ccc(SC(C)(C)C(=O)O)cc2C1 (configuration not stated)	2340 nM	
CCCCCCCN(C(=O)Nc1cccc(OC)c1)C1Cc2ccc(SC(C)(C)C(=O)O)cc2C1 (configuration not stated)	1110 nM	
CC(C)(Oc1ccc(C2CC2(Cl)Cl)cc1)C(=O)O (configuration not stated) [CIPROFIBRATE]	> 10000 nM	
CC(C)(Sc1ccc2c(c1)CC(NC(=O)Nc1ccc(OC(F)(F)F)cc1)C2)C(=O)O (configuration not stated)	96 nM	
CCN(C(=O)Nc1ccc(OC(F)(F)F)cc1C)C1Cc2ccc(SC(C)(C)C(=O)O)cc2C1 (configuration not stated)	598 nM	
CCCCCCCN(C(=O)Nc1ccc(OC(F)(F)F)cc1)C1Cc2ccc(SC(C)(C)C(=O)O)cc2C1 (configuration not stated)	294 nM	
CCCCCCCN(C(=O)Nc1cccc(F)c1)C1Cc2ccc(SC(C)(C)C(=O)O)cc2C1 (configuration not stated)	2670 nM	
CCCCCCCN(C(=O)Nc1ccccc1C(F)(F)F)C1Cc2ccc(SC(C)(C)C(=O)O)cc2C1 (configuration not stated)	6390 nM	
CCCCCCCN(C(=O)Nc1ccccc1OC(F)(F)F)C1Cc2ccc(SC(C)(C)C(=O)O)cc2C1 (configuration not stated)	4990 nM	
CCCCCCCN(C(=O)Nc1ccc(OC)cc1)C1Cc2ccc(SC(C)(C)C(=O)O)cc2C1 (configuration not stated)	910 nM	
CCCCCCCN(C(=O)Nc1ccc(SC(F)(F)F)cc1)C1Cc2ccc(SC(C)(C)C(=O)O)cc2C1 (configuration not stated)	210 nM	
CCCCCN(C(=O)Nc1ccc(C(C)C)cc1)C1Cc2ccc(SC(C)(C)C(=O)O)cc2C1 (configuration not stated)	159 nM	

Compound	EC50 [1]	also measured
CCN(C(=O)Nc1ccc(SC(F)(F)F)cc1)C1Cc2ccc(SC(C)(C)C(=O)O)cc2C1 (configuration not stated)	23 nM	half-life at 5 µM [2]: 1.67 h; Cmax [3]: 5670 ng/mL; AUC [4]: 101000 ng·h/mL; half-life [5]: 3.84 h; clearance [6]: 0.3 mL/min/kg; bioavailability [7]: 100%
CCCCCCN(C(=O)Nc1ccc(C(C)C)cc1)C1Cc2ccc(SC(C)(C)C(=O)O)cc2C1 (configuration not stated)	180 nM	
CCCCN(C(=O)Nc1ccc(OC(F)(F)F)cc1)C1Cc2ccc(SC(C)(C)C(=O)O)cc2C1 (configuration not stated)	195 nM	
CCCCCN(C(=O)Nc1ccc(SC(F)(F)F)cc1)C1Cc2ccc(SC(C)(C)C(=O)O)cc2C1 (configuration not stated)	46 nM	half-life at 5 µM [2]: 1.27 h; Cmax [3]: 8020 ng/mL; AUC [4]: 54700 ng·h/mL; half-life [5]: 4.05 h; clearance [6]: 0.55 mL/min/kg; bioavailability [7]: 59%
CCCCCCCN(C(=O)Nc1ccc(SC)cc1)C1Cc2ccc(SC(C)(C)C(=O)O)cc2C1 (configuration not stated)	419 nM	
CCCCCCCN(C(=O)Nc1ccc(N(C)C)cc1)C1Cc2ccc(SC(C)(C)C(=O)O)cc2C1 (configuration not stated)	252 nM	
CCN(C(=O)Nc1ccc(OC(F)(F)F)cc1Br)C1Cc2ccc(SC(C)(C)C(=O)O)cc2C1 (configuration not stated)	> 1000 nM	
CCCCCCCCN(C(=O)Nc1ccc(OC(F)(F)F)cc1)C1Cc2ccc(SC(C)(C)C(=O)O)cc2C1 (configuration not stated)	1030 nM	
CCN(C(=O)Nc1ccc(OC(F)(F)F)c(Br)c1)C1Cc2ccc(SC(C)(C)C(=O)O)cc2C1 (configuration not stated)	> 3000 nM	
CCCCN(C(=O)Nc1ccc(N(C)C)cc1)C1Cc2ccc(SC(C)(C)C(=O)O)cc2C1 (configuration not stated)	561 nM	
CCCCCCN(C(=O)Nc1ccc(OC(F)(F)F)cc1)C1Cc2ccc(SC(C)(C)C(=O)O)cc2C1 (configuration not stated)	166 nM	
CCCCCCCN(C(=O)Nc1ccc(OC(F)(F)F)cc1)[C@H]1Cc2ccc(SC(C)(C)C(=O)O)cc2C1	> 13000 nM	
CC(C)(Sc1ccc2c(c1)CC(N(CCCC(F)(F)F)C(=O)Nc1ccc(OC(F)(F)F)cc1)C2)C(=O)O (configuration not stated)	707 nM	
COCCN(C(=O)Nc1ccc(OC(F)(F)F)cc1)C1Cc2ccc(SC(C)(C)C(=O)O)cc2C1 (configuration not stated)	425 nM	
CCCCCN(C(=O)Nc1ccc(N(C)C)cc1)C1Cc2ccc(SC(C)(C)C(=O)O)cc2C1 (configuration not stated)	141 nM	half-life at 5 µM [2]: 1.57 h; Cmax [3]: 20800 ng/mL; AUC [4]: 63600 ng·h/mL; half-life [5]: 2.6 h; clearance [6]: 0.47 mL/min/kg; bioavailability [7]: 62%
CCCCCCCN(C(=O)Nc1ccccc1F)C1Cc2ccc(SC(C)(C)C(=O)O)cc2C1 (configuration not stated)	> 10000 nM	
CCCCCN(C(=O)Nc1ccc(OC(F)(F)F)cc1)C1Cc2ccc(SC(C)(C)C(=O)O)cc2C1 (configuration not stated)	105 nM	half-life at 5 µM [2]: 1.67 h; Cmax [3]: 16600 ng/mL; AUC [4]: 121000 ng·h/mL; half-life [5]: 7.19 h; clearance [6]: 0.25 mL/min/kg; bioavailability [7]: 24%
CCCCCCCN(C(=O)Nc1ccc(C(C)C)cc1)C1Cc2ccc(SC(C)(C)C(=O)O)cc2C1 (configuration not stated)	229 nM	
CCCCN(C(=O)Nc1ccc(C(C)C)cc1)C1Cc2ccc(SC(C)(C)C(=O)O)cc2C1 (configuration not stated)	260 nM	
CCN(C(=O)Nc1ccc(C(C)C)cc1)C1Cc2ccc(SC(C)(C)C(=O)O)cc2C1 (configuration not stated)	32 nM	half-life at 5 µM [2]: 0.2 h; Cmax [3]: 32400 ng/mL; AUC [4]: 37100 ng·h/mL; half-life [5]: 2.92 h; clearance [6]: 0.81 mL/min/kg; bioavailability [7]: 34%
CCCCCCCN(C(=O)Nc1cccc(C(F)(F)F)c1)C1Cc2ccc(SC(C)(C)C(=O)O)cc2C1 (configuration not stated)	2730 nM	
CC(C)N(C(=O)Nc1ccc(OC(F)(F)F)cc1)C1Cc2ccc(SC(C)(C)C(=O)O)cc2C1 (configuration not stated)	> 5000 nM	
CCCCCCN(C(=O)Nc1ccc(N(C)C)cc1)C1Cc2ccc(SC(C)(C)C(=O)O)cc2C1 (configuration not stated)	219 nM	
CC(C)(Sc1ccc2c(c1)C[C@@H](NC(=O)Nc1ccc(OC(F)(F)F)cc1)C2)C(=O)O	1110 nM	
CCN(C(=O)N(C)c1ccc(OC(F)(F)F)cc1)C1Cc2ccc(SC(C)(C)C(=O)O)cc2C1 (configuration not stated)	> 1000 nM	
